Results taken from the supplement of paper PMC10883282.

Columns and labels:
Test in all cases: relative viability vs DMSO control (72 h) (fraction); higher = more viable cells
[1] = test system: KHOS-240S
In short: (§1)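 Sarcoma cell lines went into 384-well plates at densities chosen to reach 80–90% confluence. After 24 h, each well received 2.5 µl of serially diluted compound, with source plates running from 10 mM to 0.0002 mM, and the plates were kept 72 h at 37 °C, 5% CO2, alongside 0.1% DMSO vehicle and a 5 µM positive control. Relative viability was derived from ATPLite readings as percent growth and averaged over up to triplicate wells. The data were then rescaled so that 1 stands for full and 0 for none.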

[2] = test system: SYO-1
In short: as §1

[3] = test system: MES-SA
In short: as §1

[4] = test system: SW1353
In short: as §1

[5] = test system: RD
In short: as §1

Cc1c(F)cc(C(=O)NC2CC2)cc1-c1ccc(C(=O)NCC(C)(C)C)cn1 [Losmapimod]
relative viability
Settings | [1] | [2] | [3] | [4] | [5]
0.00017 µM | 1.07 | 0.993 | 0.997 | 1.06 | 1.11
0.00051 µM | 1.1 | 0.992 | 0.9963 | 1.06 | 1.11
0.00152 µM | 1.07 | 0.975 | 0.967 | 1.08 | 1.1
0.00457 µM | 1.09 | 0.975 | 0.951 | 1.07 | 1.14
0.01372 µM | 1.04 | 0.954 | 0.96 | 1.09 | 1.12
0.04115 µM | 1.06 | 0.957 | 0.935 | 1.08 | 1.13
0.1235 µM | 1.02 | 0.915 | 0.9396 | 1.08 | 1.11
0.3704 µM | 1 | 0.865 | 0.928 | 1.09 | 1.07
1.111 µM | 0.951 | 0.852 | 0.8915 | 1.079 | 1.08
3.333 µM | 0.97 | 0.813 | 0.866 | 1.07 | 1.02
10 µM | 0.893 | 0.812 | 0.879 | 0.959 | 1.07

Cc1cn(-c2cc(NC(=O)c3ccc(C)c(Nc4nccc(-c5cnccn5)n4)c3)cc(C(F)(F)F)c2)cn1 [Radotinib]
relative viability
Settings | [1] | [2] | [3] | [4] | [5]
0.00017 µM | 1.07 | 0.976 | 0.935 | 1.02 | 1.11
0.00051 µM | 1.07 | 0.978 | 0.938 | 1.023 | 1.1
0.00152 µM | 1.07 | 0.987 | 0.935 | 1.06 | 1.12
0.00457 µM | 1.07 | 0.967 | 0.941 | 1.06 | 1.12
0.01372 µM | 1.05 | 0.989 | 0.958 | 1.06 | 1.12
0.04115 µM | 1.06 | 0.988 | 0.954 | 1.1 | 1.11
0.1235 µM | 1.07 | 0.993 | 0.981 | 1.19 | 1.13
0.3704 µM | 1.05 | 0.945 | 0.99 | 1.21 | 1.12
1.111 µM | 1.04 | 0.802 | 1.01 | 1.25 | 1.1
3.333 µM | 1.05 | 0.688 | 1.01 | 1.22 | 1.07
10 µM | 1.02 | 0.644 | 1.03 | 1.17 | 1.04

CN1CCN(CCOc2cc(OC3CCOCC3)c3c(Nc4c(Cl)ccc5c4OCO5)ncnc3c2)CC1 [Saracatinib]
relative viability
Settings | [1] | [2] | [3] | [4] | [5]
0.00017 µM | 1.07 | 1.02 | 0.934 | 1.03 | 1.05
0.00051 µM | 1.08 | 1.02 | 0.933 | 0.988 | 1.08
0.00152 µM | 1.07 | 0.971 | 0.936 | 1.02 | 1.096
0.00457 µM | 1.07 | 0.965 | 0.94 | 0.996 | 1.08
0.01372 µM | 1.07 | 0.958 | 0.959 | 0.945 | 1.07
0.04115 µM | 1.08 | 0.917 | 0.923 | 0.929 | 1.01
0.1235 µM | 1.046 | 0.91 | 0.943 | 0.891 | 0.948
0.3704 µM | 0.934 | 0.826 | 0.925 | 0.843 | 0.836
1.111 µM | 0.802 | 0.66 | 0.837 | 0.7072 | 0.786
3.333 µM | 0.614 | 0.481 | 0.692 | 0.6847 | 0.692
10 µM | 0.451 | 0.389 | 0.622 | 0.666 | 0.642

NC(=O)c1cnc2[nH]ccc2c1N[C@@H]1[C@@H]2CC3C[C@H]1C[C@@](O)(C3)C2 [Peficitinib]
relative viability
Settings | [1] | [2] | [3] | [4] | [5]
0.00017 µM | 1.01 | 1 | 0.913 | 1.03 | 1.03
0.00051 µM | 1.05 | 0.981 | 0.9465 | 1.05 | 1.04
0.00152 µM | 1.04 | 0.985 | 0.9008 | 1.01 | 1.04
0.00457 µM | 1.05 | 0.995 | 0.918 | 1.012 | 1.04
0.01372 µM | 1.06 | 0.975 | 0.9 | 1.04 | 1.03
0.04115 µM | 1.07 | 0.97 | 0.94 | 1.07 | 1.05
0.1235 µM | 1.05 | 0.953 | 0.945 | 1.04 | 1.07
0.3704 µM | 1.04 | 0.933 | 0.971 | 1.08 | 1.1
1.111 µM | 1.03 | 0.705 | 0.981 | 1.09 | 1.117
3.333 µM | 0.837 | 0.56 | 0.769 | 1.09 | 1.099
10 µM | 0.498 | 0.405 | 0.388 | 0.988 | 1.01
